Measurements from patent US11390631B1, “Benzodiazepine derivatives as RSV inhibitors” (priority 2015, dated 2022).

Key:
[1] = test system: Human RSV-A (“Long” strain); assay: RSV-A assay: inhibition of cytopathic effect in Hep-2 cells, ATPlite readout; type: cell-based, Human respiratory syncytial virus (HRSV); conditions: human respiratory syncytial virus, HEp-2, 120 h, read-out: Human RSV-A (“Long” strain) EC50
How it was run: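 Hep-2 cells (8,000/well) were infected with RSV-A Long at MOI 0.1 alongside duplicate 2-fold compound dilutions. After 5 days, cell viability was read by ATPlite luminescence to give EC50. CC50 came from a parallel plate without virus.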

[2] = test system: RSV-B, genotype B, strain 9320; assay: RSV-B assay: A549 cells infected with RSV-B, qPCR or ATPlite readout; type: cell-based, Human respiratory syncytial virus (HRSV); conditions: human respiratory syncytial virus, A549, read-out: Human RSV-B EC50
Description: Hep-2 cells, (originally derived from tumors grown in irradiated-cortisonised weanling rats that had been injected with epidermoid carcinoma tissue from a person's larynx, but later found to be indistinguishable from HeLa cells by PCR DNA analysis), were used for the culturing of genotype B, strain 9320. Flasks were inoculated with RSV-B and viral stocks were collected once cytopathic effect (CPE) was greater than […]. Viral stocks in 25% o sucrose media were snap frozen using liquid nitrogen to increase viral stability. Viral stock titers were quantified by tissue culture infectious dose 50% o (TCID50) using 8,000 cells per well and 5-fold viral dilutions across a 96-well plate, cultured for 4 days. Viral stock titers were also quantified by a plaque forming unit assay, as described elsewhere.
The assay is run as follows: A549 cells (originally derived through explant culture from a person's carcinomatous lung tissue) are seeded into the inner 60 wells of a 96-well plate at 3,000 cells per well in a volume of 50 μL using A549 growth media (F-12K Media, 1% Penn/Strep, 1% nonessential amino acids, 10% heat-inactivated FBS). 2-fold serial dilutions of control and test compounds are added to the wells in duplicate in a total volume of 25 μL. Viral stock is then added to the wells at a multiplicity of infection (MOI) of 0.5 in a volume of 25 μL, bringing the total volume of each well to 100 μL. The MOI is calculated using the PFU/mL, or TCID50 if unavailable. Each 96-well plate has a control column of 6 wells with cells and virus but no compound (negative control, max CPE), a column with cells but no compound or virus (positive control, minimum CPE), and a column with no cells or virus or compound (background plate/reagent control). The control wells with cells but no virus are given an additional 25 uL of growth media containing an equal quantity of sucrose as those wells receiving the viral stock in order to keep consistent in media and volume conditions. The outer wells of the plate are filled with 125 μL of moat media (DMEM, 1% Penn/Strep) to act as a thermal and evaporative moat around the test wells. 6 days post infection, the plates are read using qPCR or ATP lite (50 uL added per well), which quantifies the amount of ATP (a measure of cell health) present in each well. Assay plates treated with APTlite are read using the Envision luminometer. […] EC50 ranges are as follows: A<0.4 μM; B 0.4-0.8 μM; C>0.8 μM.

In the case of `COCCOc1cc(C#N)ccc1-c1nnc(N[C@H]2N=C(c3ccccc3)c3ccccc3NC2=O)o1` [Example 300], the EC50 [1] is reported as < 400 nM and the EC50 [2] is reported as < 400 nM.
With `O=C1Nc2ccccc2C(c2ccccc2)=NC1Nc1nnc(-c2cccnc2N2CCOCC2)o1` (stereo not shown) [Example 120] the EC50 [1] was < 400 nM and the EC50 [2] was 400 to 800 nM.
With `O=C1Nc2ccccc2C(c2ccccc2)=N[C@@H]1Nc1nnc(-c2nc(C3CCC3)sc2N2CCOCC2)o1` [Example 387] the EC50 [1] was < 400 nM and the EC50 [2] was < 400 nM.
`Cn1c(N2CCOCC2)c(-c2nnc(N[C@H]3N=C(c4ccccc4)c4ccccc4NC3=O)o2)ccc1=O` [Example 155] was tested, and the EC50 [1] was < 400 nM and the EC50 [2] was < 400 nM.
In the case of `CC(C)n1cc(-c2nnc(N[C@H]3N=C(c4ccccc4)c4ccccc4NC3=O)o2)c(N2CCOCC2)n1` [Example 403], the EC50 [1] is reported as < 400 nM and the EC50 [2] is reported as < 400 nM.
Compound `C[C@H]1CN(c2ncccc2-c2nnc(NC3N=C(c4ccccc4)c4ccccc4NC3=O)o2)CCO1` (stereo partly shown) [Example 263] has an EC50 [1] of 400 to 800 nM and an EC50 [2] of 400 to 800 nM.
`N#Cc1ccc(-c2nnc(N[C@H]3N=C(c4ccccc4)c4ccccc4NC3=O)o2)c(N2CCOCC2)n1` [Example 153] was tested, and the EC50 [1] was < 400 nM and the EC50 [2] was < 400 nM.
With `Cc1nc(-c2nnc(N[C@H]3N=C(c4ccccc4)c4ccccc4NC3=O)o2)c(N2CCOCC2)s1` [Example 272] the EC50 [1] was < 400 nM and the EC50 [2] was < 400 nM.
With `O=C1Nc2ccccc2C(c2ccccc2)=N[C@@H]1Nc1nnc(-c2nc(C(F)(F)F)sc2N2CCOCC2)o1` [Example 339] the EC50 [1] was < 400 nM and the EC50 [2] was < 400 nM.
For `C[C@@H]1CN(c2cc(C(F)(F)F)cnc2-c2nnc(N[C@H]3N=C(c4ccccc4)c4ccccc4NC3=O)o2)CCO1` [Example 277], the EC50 [1] was < 400 nM and the EC50 [2] was < 400 nM.
`O=C1Nc2ccccc2C(c2ccccc2)=N[C@@H]1Nc1nnc(-c2ncc(C(F)(F)F)cc2N2C3CCC2COC3)o1` [Example 250] was tested, and the EC50 [1] was < 400 nM and the EC50 [2] was < 400 nM.
`Cc1ccc(-c2nnc(NC3N=C(c4ccccc4)c4ccccc4NC3=O)o2)c(N2CCOCC2)n1` (stereo not shown) [Example 144] was tested, and the EC50 [1] was < 400 nM and the EC50 [2] was < 400 nM.
For `CN(C)c1ccc(-c2nnc(NC3N=C(c4ccccc4)c4ccccc4NC3=O)o2)nc1` (stereo not shown) [Example 108], the EC50 [1] was > 800 nM and the EC50 [2] was > 800 nM.
In the case of `O=C1Nc2ccccc2C(c2ccccc2)=N[C@@H]1Nc1nnc(-c2nc(C3CC3)sc2N2CCOCC2)o1` [Example 338], the EC50 [1] is reported as < 400 nM and the EC50 [2] is reported as < 400 nM.
For `O=C1Nc2ccccc2C(c2ccccc2)=NC1Nc1nnc(-c2ccc(C(F)(F)F)cc2N2CCOCC2)o1` (stereo not shown) [Example 123], the EC50 [1] was < 400 nM and the EC50 [2] was 400 to 800 nM.
`Cc1nc(N2CCOCC2)c(-c2nnc(N[C@H]3N=C(c4ccccc4)c4ccccc4NC3=O)o2)cc1C#N` [Example 158] was tested, and the EC50 [1] was < 400 nM and the EC50 [2] was < 400 nM.
In the case of `O=C1Nc2ccccc2C(c2ccccc2)=N[C@@H]1Nc1nnc(-c2nc3ccccc3cc2N2CCOCC2)o1` [Example 322], the EC50 [1] is reported as < 400 nM and the EC50 [2] is reported as < 400 nM.
In the case of `O=C1Nc2ccccc2C(c2ccccc2)=N[C@@H]1Nc1nnc(-c2nc(-c3ccccn3)sc2N2CCOCC2)o1` [Example 341], the EC50 [1] is reported as < 400 nM and the EC50 [2] is reported as < 400 nM.
For `O=C1Nc2ccccc2C(c2ccccc2)=N[C@@H]1Nc1nnc(-c2ncc(Br)cc2N2CCOCC2)o1` [Example 168], the EC50 [1] was < 400 nM and the EC50 [2] was < 400 nM.
For `O=C1Nc2ccccc2C(c2ccccc2)=N[C@@H]1Nc1nnc(-c2ncc(F)cc2N2CCOCC2)o1` [Example 136, (S)-3-((5-(5-fluoro-3-morpholinopyridin-2-yl)-1,3,4-oxadiazol-2-yl)amino)-5-phenyl-1,3-dihydro-2H-benzo[e][1,4]diazepin-2-one], the EC50 [1] was < 400 nM and the EC50 [2] was < 400 nM.
For `CCc1nc(-c2nnc(N[C@H]3N=C(c4ccccc4)c4ccccc4NC3=O)o2)c(N2CCOCC2)s1` [Example 385], the EC50 [1] was < 400 nM and the EC50 [2] was < 400 nM.
For `O=C1Nc2ccccc2C(c2ccccc2)=NC1Nc1nnc(-c2ccc(-n3cccn3)cc2)[nH]1` (stereo not shown) [Example 364], the EC50 [1] was < 400 nM and the EC50 [2] was 400 to 800 nM.
With `O=C1Nc2ccccc2C(c2ccccc2)=NC1Nc1nnc(-c2ccc(F)cc2N2CCOCC2)o1` (stereo not shown) [Example 127] the EC50 [1] was < 400 nM and the EC50 [2] was < 400 nM.
